According to patent US20170152569A1, “POLYMORPHISM IN THE BCL2 GENE DETERMINES RESPONSE TO CHEMOTHERAPY” (HIDENSEQ, priority 2014, published 2017):

How the values were obtained:
HeyA8 cells [1] = experiment: Sensitivity of transfected HeyA8 cells to paclitaxel (cell viability, PI/FACS); type: cell-based
Protocol: HeyA8 ovarian cell lines were grown at 37° C. with 5% CO2 in MEM-EAGLE medium supplement with 2 mM L-glutamine, 1.5 g/L sodium bicarbonate, 4.5 g/L glucose, 10 mM HEPES, 1.0 mM sodium pyruvate and 10% fetal bovine serum (FBS).
(§1) Propidium iodide (PI) was added to the cell suspension at a concentration of 1 μg/ml. Sorting and analyses were carried out in a Gallios flow cytometer cell sorter collecting 10,000 events. Dead cells were excluded by gating on forward and side scatter and by eliminating PI-positive events.
Cells expressing GFP-empty vector or one of three types of GFP-BCL2 variants were measured for their sensitivity to paclitaxel. Following 24 hours of transfection with one of the indicated plasmids, cells were introduced to 100 or 200 nM of paclitaxel for 24 hours incubation.
(§2) To examine the effect of rs1801018 variant on cells sensitivity to paclitaxel, GFP-empty vector control or one of three GFP-BCL2 variants (wild-type, rs1801018 variant or random) were over-expressed in cells, which then were tested with paclitaxel. Cells were incubated with increasing concentrations of paclitaxel as indicated in methods and in FIG. 3. […] To study the relationship between resistance to paclitaxel and BCL2 gene copy numbers, a Bcl2 gradient assay was performed. The assay is designed to examine cell sensitivity to paclitaxel in the presence of increasing levels of BCL2 copies. HeyA8 cells were transfected with 5 different doses of wt-BCL2-GFP. 24 hours post transfection cells were treated with paclitaxel, and 24 hours post incubation cells viability was measured by FACS.

HeyA8 cells [2] = experiment: Bcl2 gradient assay: cell sensitivity to paclitaxel with increasing wt-BCL2-GFP doses; type: cell-based; details: HeyA8 cells transfected with increased concentrations of BCL2 mRNA (5 doses of wt-BCL2-GFP); viability by FACS 24 hours after paclitaxel
Protocol: as §1, §2

Ovarian Cancer (OV) = details: paclitaxel as first line; cited from earlier work
[3] = system: Uterine Corpus Endometrial carcinoma (UCEC); details: of 83 UCEC patients, paclitaxel as first line; cited from earlier work

CC(=O)O[C@H]1C(=O)[C@@]2(C)[C@H]([C@H](OC(=O)c3ccccc3)[C@]3(O)C[C@H](OC(=O)[C@H](O)[C@@H](NC(=O)c4ccccc4)c4ccccc4)C(C)=C1C3(C)C)[C@]1(OC(C)=O)CO[C@@H]1C[C@@H]2O [paclitaxel, (2α,4α,5β,7β,10β,13α)-4,10-Bis(acetyloxy)-13-{[(2R,3S)-3-(benzoylamino)-2-hydroxy-3-phenylpropanoyl]oxy}-1,7-dihydroxy-9-oxo-5,20-epoxytax-11-en-2-yl benzoate]
sensitivity to paclitaxel (HeyA8 cells [1]; HeyA8 cells harboring GFP-empty vector, 100 or 200 nM paclitaxel, 24 hours): high sensitivity | cell viability in response to paclitaxel (HeyA8 cells [1]; HeyA8 cells transfected with rs1801018 variant (BCL2-Mut), p-value <0.05): significantly improved | cell death / cell viability in response to paclitaxel (HeyA8 cells [1]; HeyA8 cells transfected with wild-type or random BCL2, 100 or 200 nM paclitaxel, 24 hours): reduced cell death | relative cell death in response to paclitaxel (HeyA8 cells [2]): decrease in relative cell death | patients who required additional lines of diverse chemotherapies (Ovarian Cancer (OV)): 226 patients | patients who responded well to the first line of treatment (Ovarian Cancer (OV)): 144 patients | patients who require multiple lines [3]: 20 patients | patients who responded to the first line of treatment [3]: 63 patients
